Measured values reported in PMC5466588 (Redox Biology, 2017).

Key:
Assay in all cases: Di-E-GSSG fluorescent reductase assay
Format in all cases: biochemical
[1] = target: protein disulfide isomerase (PDI) (Homo sapiens, UniProt P07237)
ERp72 = target: T1, ERp72 (Homo sapiens, UniProt P13667)
T1 sequence (P13667 21-645): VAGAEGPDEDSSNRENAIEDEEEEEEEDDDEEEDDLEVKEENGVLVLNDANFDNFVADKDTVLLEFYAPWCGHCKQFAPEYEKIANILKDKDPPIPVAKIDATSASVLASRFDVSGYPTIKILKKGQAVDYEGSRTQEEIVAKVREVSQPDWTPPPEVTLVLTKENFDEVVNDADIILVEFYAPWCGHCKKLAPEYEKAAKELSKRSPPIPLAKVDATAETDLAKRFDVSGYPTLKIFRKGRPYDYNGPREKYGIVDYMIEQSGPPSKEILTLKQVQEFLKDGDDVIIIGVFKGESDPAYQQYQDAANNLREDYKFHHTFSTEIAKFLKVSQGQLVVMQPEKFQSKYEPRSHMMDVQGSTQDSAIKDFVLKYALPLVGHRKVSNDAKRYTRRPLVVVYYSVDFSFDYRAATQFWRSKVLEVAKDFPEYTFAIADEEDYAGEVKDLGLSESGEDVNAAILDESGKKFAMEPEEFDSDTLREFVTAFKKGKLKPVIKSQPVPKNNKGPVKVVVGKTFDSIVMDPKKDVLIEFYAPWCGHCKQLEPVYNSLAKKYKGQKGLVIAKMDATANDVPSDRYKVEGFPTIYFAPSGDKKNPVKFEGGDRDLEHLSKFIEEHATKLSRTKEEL

ERp57 = target: T2, ERp57 (Homo sapiens, UniProt P30101)
T2 sequence (P30101 25-505): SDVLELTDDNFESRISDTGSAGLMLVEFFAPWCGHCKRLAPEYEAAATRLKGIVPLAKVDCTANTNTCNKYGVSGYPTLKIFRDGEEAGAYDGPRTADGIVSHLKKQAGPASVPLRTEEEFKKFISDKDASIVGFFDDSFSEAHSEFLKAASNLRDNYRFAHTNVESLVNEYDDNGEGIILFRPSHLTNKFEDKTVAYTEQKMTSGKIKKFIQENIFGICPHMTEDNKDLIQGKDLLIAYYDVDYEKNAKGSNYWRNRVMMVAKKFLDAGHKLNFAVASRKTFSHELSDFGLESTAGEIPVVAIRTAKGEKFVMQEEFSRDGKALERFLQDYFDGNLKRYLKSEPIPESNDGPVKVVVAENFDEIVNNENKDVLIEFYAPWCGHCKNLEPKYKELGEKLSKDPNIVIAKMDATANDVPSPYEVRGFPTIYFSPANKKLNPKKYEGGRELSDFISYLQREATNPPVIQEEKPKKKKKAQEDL

ERp5 = target: T3, ERp5 (Homo sapiens, UniProt Q15084)
T3 sequence (Q15084 20-440): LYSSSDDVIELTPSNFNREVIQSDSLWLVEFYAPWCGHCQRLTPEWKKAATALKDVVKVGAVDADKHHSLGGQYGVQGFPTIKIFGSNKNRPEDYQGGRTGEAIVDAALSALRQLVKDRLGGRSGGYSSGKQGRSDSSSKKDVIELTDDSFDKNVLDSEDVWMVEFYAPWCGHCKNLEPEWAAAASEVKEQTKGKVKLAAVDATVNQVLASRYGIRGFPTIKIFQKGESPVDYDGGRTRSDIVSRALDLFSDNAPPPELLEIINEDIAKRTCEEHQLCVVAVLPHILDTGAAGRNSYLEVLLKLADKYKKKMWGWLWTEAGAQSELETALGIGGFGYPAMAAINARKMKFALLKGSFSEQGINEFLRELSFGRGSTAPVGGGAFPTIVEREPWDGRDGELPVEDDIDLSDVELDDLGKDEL

Sequence of protein disulfide isomerase (PDI) (P07237 18-508): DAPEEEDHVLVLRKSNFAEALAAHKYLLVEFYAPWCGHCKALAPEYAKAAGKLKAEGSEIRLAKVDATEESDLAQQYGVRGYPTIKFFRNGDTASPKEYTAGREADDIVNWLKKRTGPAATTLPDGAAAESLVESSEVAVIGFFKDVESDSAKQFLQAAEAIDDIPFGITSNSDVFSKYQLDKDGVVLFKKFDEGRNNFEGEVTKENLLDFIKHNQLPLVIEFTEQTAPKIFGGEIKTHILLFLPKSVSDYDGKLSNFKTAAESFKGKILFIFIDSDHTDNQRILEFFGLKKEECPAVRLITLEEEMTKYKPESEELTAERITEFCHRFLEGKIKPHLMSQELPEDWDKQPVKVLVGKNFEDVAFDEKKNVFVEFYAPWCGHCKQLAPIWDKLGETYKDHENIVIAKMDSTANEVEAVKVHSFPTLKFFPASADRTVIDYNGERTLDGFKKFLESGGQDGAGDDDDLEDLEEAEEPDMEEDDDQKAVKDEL

## COc1cc(/C=C/[N+](=O)[O-])ccc1OC(=O)c1cccc(Cl)c1Cl [HPW-RX40, 2-Methoxy-4-[(E)-2-nitrovinyl]phenyl 2,3-dichlorobenzoate]
[1]
  IC50: 1450 nM
ERp72
  IC50: 18.8 µM
ERp57
  IC50: 4.3 µM
ERp5
  IC50: 2600 nM
